Article PMC4301037, “Identification and Structure–Function Analysis of Subfamily Selective G Protein-Coupled Receptor Kinase Inhibitors” (ACS Chemical Biology, 2014)
pIC50: −log10 of the molar value. Where two headings read alike, the source gives them in different places.

Experiments:
PKA = biological target: T1, PKA (Mus musculus, UniProt P05132); assay: PKA inhibition assay (ADP-Glo, CREBtide, 100 μM ATP); format: biochemical; conditions: for IC50: logarithm of IC50 (−3.3 corresponds to 0.5 mM, footnote c), 438 nM PKA, 100 μM ATP, CREBtide, read-out: PKA log IC50 (converted)
T1 construct: His tag (inferred from pET15b vector and Ni-NTA column) (N); host or cells: E. coli Rosetta(DE3)pLysS

GRK1 [1] = biological target: T2, GRK1 (Bos taurus, UniProt P28327); assay: In vitro phosphorylation assay (tubulin, 5 μM ATP), GRK1; format: biochemical, bovine; conditions: for IC50: read-out: GRK1 log IC50 (converted)
T2 construct: Bovine GRK1_1–535, bovine and human GRK2S670A; made in house
T2 sequence (P28327 1-535): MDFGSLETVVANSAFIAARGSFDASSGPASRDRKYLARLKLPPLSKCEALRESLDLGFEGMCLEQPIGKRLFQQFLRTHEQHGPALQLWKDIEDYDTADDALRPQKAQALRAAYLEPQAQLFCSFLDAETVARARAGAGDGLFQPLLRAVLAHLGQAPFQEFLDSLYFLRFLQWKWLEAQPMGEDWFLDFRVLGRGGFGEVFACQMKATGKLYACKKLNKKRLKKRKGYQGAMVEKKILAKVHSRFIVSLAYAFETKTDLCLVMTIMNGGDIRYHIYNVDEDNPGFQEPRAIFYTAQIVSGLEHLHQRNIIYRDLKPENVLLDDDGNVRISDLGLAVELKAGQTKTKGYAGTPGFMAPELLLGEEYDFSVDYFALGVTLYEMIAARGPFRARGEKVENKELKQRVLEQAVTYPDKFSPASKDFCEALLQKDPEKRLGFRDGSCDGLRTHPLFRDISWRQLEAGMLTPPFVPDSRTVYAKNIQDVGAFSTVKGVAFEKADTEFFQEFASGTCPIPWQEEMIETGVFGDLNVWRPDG

GRK2 [2] = biological target: T3, GRK2 (Bos taurus, UniProt P21146, S670A); assay: In vitro phosphorylation assay (tubulin, 5 μM ATP), GRK2; format: biochemical, bovine; conditions: for IC50: read-out: GRK2 log IC50 (converted)
T3 construct: made in house
T3 sequence (P21146 1-689 S670A): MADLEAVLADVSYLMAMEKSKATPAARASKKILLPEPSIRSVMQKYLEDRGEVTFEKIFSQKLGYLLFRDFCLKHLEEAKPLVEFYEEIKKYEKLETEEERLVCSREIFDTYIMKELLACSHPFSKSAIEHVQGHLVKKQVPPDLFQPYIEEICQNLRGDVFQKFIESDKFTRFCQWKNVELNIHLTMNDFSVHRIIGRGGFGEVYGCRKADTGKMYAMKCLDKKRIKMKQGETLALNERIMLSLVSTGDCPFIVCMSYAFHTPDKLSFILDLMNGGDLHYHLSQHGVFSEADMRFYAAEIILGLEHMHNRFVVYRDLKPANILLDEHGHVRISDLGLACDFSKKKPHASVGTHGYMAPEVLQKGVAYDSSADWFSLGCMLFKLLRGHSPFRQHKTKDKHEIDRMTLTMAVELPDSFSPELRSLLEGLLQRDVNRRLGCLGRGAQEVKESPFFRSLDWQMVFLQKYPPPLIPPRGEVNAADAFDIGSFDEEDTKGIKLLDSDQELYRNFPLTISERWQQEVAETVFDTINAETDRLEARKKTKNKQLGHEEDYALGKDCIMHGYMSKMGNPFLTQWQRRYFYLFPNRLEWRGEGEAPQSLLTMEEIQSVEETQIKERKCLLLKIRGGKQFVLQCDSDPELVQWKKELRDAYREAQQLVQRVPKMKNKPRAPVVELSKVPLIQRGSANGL

GRK5 [3] = biological target: T4, GRK5 (Bos taurus, UniProt P43249); assay: In vitro phosphorylation assay (tubulin, 5 μM ATP), GRK5; format: biochemical, bovine; conditions: for IC50: read-out: GRK5 log IC50 (converted)
T4 construct: when using full-length kinases as the receptor[37] instead of isolated kinase domains; made in house
T4 sequence (P43249 whole entry, the tested form may be a part): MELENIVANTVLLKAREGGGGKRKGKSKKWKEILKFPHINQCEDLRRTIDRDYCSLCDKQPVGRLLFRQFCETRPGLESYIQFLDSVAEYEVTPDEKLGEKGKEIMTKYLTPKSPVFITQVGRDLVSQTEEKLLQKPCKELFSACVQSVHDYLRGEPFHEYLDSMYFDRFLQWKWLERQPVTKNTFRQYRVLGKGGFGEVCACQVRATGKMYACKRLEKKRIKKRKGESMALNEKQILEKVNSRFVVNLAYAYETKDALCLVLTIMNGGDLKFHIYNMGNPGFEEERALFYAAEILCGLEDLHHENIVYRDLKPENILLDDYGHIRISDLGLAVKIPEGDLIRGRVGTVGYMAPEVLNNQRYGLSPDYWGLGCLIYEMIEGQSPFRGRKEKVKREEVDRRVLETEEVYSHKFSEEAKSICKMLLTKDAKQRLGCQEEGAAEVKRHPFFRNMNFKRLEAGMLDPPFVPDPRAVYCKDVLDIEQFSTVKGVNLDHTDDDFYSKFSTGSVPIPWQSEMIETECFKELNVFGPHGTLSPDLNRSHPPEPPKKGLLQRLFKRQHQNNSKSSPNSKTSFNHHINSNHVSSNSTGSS

GRK1 [4] = biological target: T2, GRK1; assay: DSF retest (confirmation), GRK1; format: binding, bovine; conditions: for GRK1 Tm: 0.2 mg mL^–1 kinase; for GRK1 ΔTm: relative to intrinsic melting point of the kinase
protein kinase A (PKA) = biological target: T5, protein kinase A (PKA) (Mus musculus, UniProt P05132); assay: DSF retest (confirmation), PKA; format: binding; conditions: for PKA Tm: 0.2 mg mL^–1 kinase; for PKA ΔTm: relative to intrinsic melting point of the kinase
T5 construct: His tag (inferred from pET15b vector and Ni-NTA column) (N); host or cells: E. coli Rosetta(DE3)pLysS
Protocol: Fourteen compounds (Figure 1a–c), including all GRK2 hits except staurosporine, and the most stabilizing pyrrolopyrimidine-containing compounds were obtained from GSK and retested using DSF on GRKs representing each vertebrate subfamily (GRK1, 2, and 5) (Table 1). […] The ability of these compounds to shift the Tm of the related AGC family kinase member protein kinase A (PKA) was also assessed (Table 1). In no case was ΔTm greater for PKA than for one of the tested GRKs. […]. There was no correlation for GRK1 (Figure 2c).
DSF was conducted using a ThermoFluor plate reader (Johnson & Johnson) in a buffer containing 20 mM HEPES, pH 7.0, 5 mM MgCl2, 2 mM DTT, and 1 mM CHAPS with 0.2 mg mL^–1 final concentration of GRK or PKA and 100 μM 1-anilinonaphthalene-8-sulfonic acid.[14]

GRK5 [5] = biological target: T4, GRK5; assay: DSF retest (confirmation), GRK5; format: binding, bovine; conditions: for GRK5 Tm: 0.2 mg mL^–1 kinase; for GRK5 ΔTm: relative to intrinsic melting point of the kinase
GRK2 [6] = biological target: T6, GRK2 (Homo sapiens, UniProt P25098, S670A); assay: DSF retest (confirmation), GRK2; format: binding; conditions: for GRK2 Tm: 0.2 mg mL^–1 kinase; for GRK2 ΔTm: relative to intrinsic melting point of the kinase
T6 construct: made in house
T6 sequence (P25098 1-689 S670A): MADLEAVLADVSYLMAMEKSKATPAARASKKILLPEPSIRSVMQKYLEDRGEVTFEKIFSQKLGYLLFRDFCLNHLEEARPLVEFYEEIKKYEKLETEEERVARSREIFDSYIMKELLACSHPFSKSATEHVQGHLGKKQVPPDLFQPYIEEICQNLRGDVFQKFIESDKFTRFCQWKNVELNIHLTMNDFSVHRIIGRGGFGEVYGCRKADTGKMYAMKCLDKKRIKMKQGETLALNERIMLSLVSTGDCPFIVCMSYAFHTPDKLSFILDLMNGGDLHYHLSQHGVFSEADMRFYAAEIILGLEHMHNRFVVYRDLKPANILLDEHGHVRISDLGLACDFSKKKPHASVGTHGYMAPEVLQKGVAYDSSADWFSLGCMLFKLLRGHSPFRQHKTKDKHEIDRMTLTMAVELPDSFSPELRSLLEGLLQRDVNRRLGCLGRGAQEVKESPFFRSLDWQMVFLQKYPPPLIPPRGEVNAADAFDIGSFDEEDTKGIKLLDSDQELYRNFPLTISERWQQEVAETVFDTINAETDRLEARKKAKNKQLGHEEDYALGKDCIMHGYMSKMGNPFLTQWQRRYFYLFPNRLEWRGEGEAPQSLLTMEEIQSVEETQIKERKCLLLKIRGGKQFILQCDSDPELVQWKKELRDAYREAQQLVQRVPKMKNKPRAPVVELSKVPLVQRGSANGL

bovine GRK5 = biological target: T7, bovine GRK5 (Bos taurus, UniProt P43249); assay: Primary DSF inhibitor screen, GRK5; format: binding; conditions: for rank in the primary screen, GRK5: rank ordering of compounds in primary DSF screen
T7 construct: when using full-length kinases as the receptor[37] instead of isolated kinase domains; made in house
T7 sequence (P43249 whole entry, the tested form may be a part): as the sequence (P43249 whole entry, the tested form may be a part) above

human GRK2S670A = biological target: T8, human GRK2S670A (Homo sapiens, UniProt P25098, S670A); assay: Primary DSF (differential scanning fluorimetry) inhibitor screen, GRK2; format: binding; conditions: 10 μM compound; for ΔTm, primary screen, GRK2 / ΔTm at 10 µM: 2 μM kinase, relative to DMSO control; for ΔTm at 10 µM: read-out: ΔTm, primary screen, GRK2; for rank in the primary screen, GRK2: rank ordering of compounds in primary DSF screen
T8 construct: when using full-length kinases as the receptor[37] instead of isolated kinase domains; made in house
T8 sequence (P25098 1-689 S670A): T6 sequence (P25098 1-689 S670A)

224 kinases = test system: 224 kinases; set-up: method as in ChEMBL database; conditions: ref ChEMBL database, cited from earlier work
GRK1, 2, and 5 and PKA = assay: Ssel selectivity score calculated from inhibition of GRK1, 2, 5 and PKA; conditions: selectivity score from inhibition of GRK1, 2, 5 and PKA; <0.5 selective
[7] = 10 μM compound, 2 μM kinase, relative to DMSO control, read-out: ΔTm, primary screen, GRK5
[8] = 10 μM compound, 2 μM kinase, relative to DMSO control

SMILES | IC50 (PKA) | GRK1 fold (increase in potency relative to paroxetine) (GRK1 [1]) | GRK2 fold (increase in potency relative to paroxetine) (GRK2 [2]) | GRK5 fold (increase in potency relative to paroxetine) (GRK5 [3]) | GRK1 Tm (GRK1 [4]) | GRK1 ΔTm (GRK1 [4]) | PKA Tm (protein kinase A (PKA)) | PKA ΔTm (protein kinase A (PKA)) | GRK5 Tm (GRK5 [5]) | GRK5 ΔTm (GRK5 [5]) | GRK2 Tm (GRK2 [6]) | GRK2 ΔTm (GRK2 [6]) | ΔTm at 10 µM (bovine GRK5; [7]) | ΔTm, primary screen, GRK2 (human GRK2S670A) | Ssel (GRK1, 2, and 5 and PKA) | IC50 (GRK1 [1]) | IC50 (GRK2 [2]) | IC50 (GRK5 [3]) | inhibition pattern in kinase cross-screening, in words (224 kinases) | rank in the primary screen, GRK5 (bovine GRK5; 10 μM compound) | other results
CC1=C(C(=O)Nc2cc(Cl)c3[nH]ncc3c2)C(c2ccc(C(F)(F)F)cc2)CC(=O)N1 (stereo not drawn) [GSK466317A] | 12.6 µM | 0 fold | 0.040 fold | 3.2 fold | 24.6 °C | 4.7 °C | 50.6 °C | 5.2 °C | 28.0 °C | 1.3 °C | 45.0 °C | 7.4 °C | 3.48 °C | 2.9 °C | 1.001 |  |  |  |  |  | pIC50 (PKA; read-out: IC50 against PKA): > 4.00; less potent than GSK180736A against GRK2 (GRK2 [2]; relative to GSK180736A): 2 log; ΔTm at 10 µM (human GRK2S670A): 2.94 °C; rank in the primary screen, GRK2 (human GRK2S670A): 8; number of other AGC kinases inhibited by more than 50% (224 kinases; at 1 μM): more than 10
CCn1c(-c2nonc2N)nc2c(C#CC(C)(C)O)nc(O[C@@H](CN)c3ccccc3)cc21 [GSK1007102B] | 0.501 µM | 6 fold | 1.3 fold | 40 fold | 26.7 °C | 6.8 °C | 52.2 °C | 6.8 °C | 28.7 °C | 2.0 °C | 49.3 °C | 11.8 °C | 3.43 °C | 5.4 °C | 0.917 | 63.1 µM | 1 µM | 3.16 µM | strong inhibition of many of the 221 kinases evaluated |  | IC50 against PKA, in words (PKA): nanomolar; ΔTm at 10 µM (human GRK2S670A): 5.41 °C; rank in the primary screen, GRK2 (human GRK2S670A): 1
CC(C)COC(=O)c1ccc2c(c1)/C(=C/Nc1ccc(S(N)(=O)=O)cc1)C(=O)N2 [GW416981X] | > 501 µM | 0 fold |  | 5.0 fold | 24.8 °C | 4.9 °C | 47.7 °C | 2.3 °C | 28.7 °C | 2.0 °C | 40.4 °C | 2.8 °C | 6.71 °C |  | 0.330 | 1000 µM | > 1000 µM | 25.1 µM | strong inhibition of many of the 221 kinases evaluated | 15 | 
Fc1cccc(COc2ccc(Nc3ncnc4cc(-c5ccc[nH]5)sc34)cc2Cl)c1 [GW693881A] | > 501 µM |  | 0.0063 fold | 1.3 fold | 24.8 °C | 4.9 °C | 47.4 °C | 2.0 °C | 27.7 °C | 0.9 °C | 40.0 °C | 2.5 °C | 6.93 °C |  | 1.005 | > 1000 µM | 200 µM | 100 µM | strong inhibition of many of the 221 kinases evaluated | 12 | ΔTm, primary screen, GRK5 (bovine GRK5; [8]): 6.9 °C
CN(c1ccc(NC(=O)Nc2ccc(OC(F)(F)F)cc2)cc1)c1ccnc(Nc2cccc(S(N)(=O)=O)c2)n1 [GW806742X] | > 501 µM |  |  |  | 20.3 °C | 0.4 °C | 45.6 °C | 0.2 °C | 27.1 °C | 0.4 °C | 36.4 °C | –1.1 °C |  |  | 1.386 | > 1000 µM | > 1000 µM | > 1000 µM | strong inhibition of many of the 221 kinases evaluated | 16 | ΔTm, primary screen, GRK5 (bovine GRK5; [8]): 6.5 °C; ΔTm at 10 µM (bovine GRK5; read-out: ΔTm, primary screen, GRK5, 10 μM compound, 2 μM kinase, relative to DMSO control): 6.48 °C
